These results are taken from US10123993B2, “Cyclic ureas as inhibitors of rock” (BRISTOL-MYERS SQUIBB COMPANY, priority 2015, dated 2018).

The target of one assay is ROCK2 (Homo sapiens, UniProt O75116). The experiment in a line: ROCK2 kinase inhibition assay (Caliper LABCHIP, FITC peptide substrate). In kind it is biochemical. The following applies: 5 μM ATP, 1.5 μM peptide substrate; value ranges. The essentials:
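Dose-response curves gave IC50 from inhibition of peptide phosphorylation, measured by LabChip separation after EDTA stop. Reactions used 1.5 μM FITC-labelled peptide, 5 μM ATP, 20 mM HEPES pH 7.5 with MgCl2, Brij-35, DTT, and under 2% DMSO.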

For assay [1], the system named is spontaneously hypertensive rat, renal hypertensive rat and deoxycortisone acetate salt hypertensive rat models. As to conditions: cited from earlier work.
For assay [2], the system named is neointimal formation in rats. The following applies: cited from earlier work.
In the next assay the test system is Dahl salt-sensitive rats. The following applies: rat, in vivo; cited from earlier work.
The subject of the next assay is rat stroke model. The following applies: in vivo; cited from earlier work.
The test system of assay [3] is IL-1 beta-induced coronary stenosis. The following applies: long term treatment; cited from earlier work.

Each structure is given as a SMILES string. Read-outs that look alike come from different tables or passages of the source.

Chain of ROCK2 (O75116 whole entry, species assumed): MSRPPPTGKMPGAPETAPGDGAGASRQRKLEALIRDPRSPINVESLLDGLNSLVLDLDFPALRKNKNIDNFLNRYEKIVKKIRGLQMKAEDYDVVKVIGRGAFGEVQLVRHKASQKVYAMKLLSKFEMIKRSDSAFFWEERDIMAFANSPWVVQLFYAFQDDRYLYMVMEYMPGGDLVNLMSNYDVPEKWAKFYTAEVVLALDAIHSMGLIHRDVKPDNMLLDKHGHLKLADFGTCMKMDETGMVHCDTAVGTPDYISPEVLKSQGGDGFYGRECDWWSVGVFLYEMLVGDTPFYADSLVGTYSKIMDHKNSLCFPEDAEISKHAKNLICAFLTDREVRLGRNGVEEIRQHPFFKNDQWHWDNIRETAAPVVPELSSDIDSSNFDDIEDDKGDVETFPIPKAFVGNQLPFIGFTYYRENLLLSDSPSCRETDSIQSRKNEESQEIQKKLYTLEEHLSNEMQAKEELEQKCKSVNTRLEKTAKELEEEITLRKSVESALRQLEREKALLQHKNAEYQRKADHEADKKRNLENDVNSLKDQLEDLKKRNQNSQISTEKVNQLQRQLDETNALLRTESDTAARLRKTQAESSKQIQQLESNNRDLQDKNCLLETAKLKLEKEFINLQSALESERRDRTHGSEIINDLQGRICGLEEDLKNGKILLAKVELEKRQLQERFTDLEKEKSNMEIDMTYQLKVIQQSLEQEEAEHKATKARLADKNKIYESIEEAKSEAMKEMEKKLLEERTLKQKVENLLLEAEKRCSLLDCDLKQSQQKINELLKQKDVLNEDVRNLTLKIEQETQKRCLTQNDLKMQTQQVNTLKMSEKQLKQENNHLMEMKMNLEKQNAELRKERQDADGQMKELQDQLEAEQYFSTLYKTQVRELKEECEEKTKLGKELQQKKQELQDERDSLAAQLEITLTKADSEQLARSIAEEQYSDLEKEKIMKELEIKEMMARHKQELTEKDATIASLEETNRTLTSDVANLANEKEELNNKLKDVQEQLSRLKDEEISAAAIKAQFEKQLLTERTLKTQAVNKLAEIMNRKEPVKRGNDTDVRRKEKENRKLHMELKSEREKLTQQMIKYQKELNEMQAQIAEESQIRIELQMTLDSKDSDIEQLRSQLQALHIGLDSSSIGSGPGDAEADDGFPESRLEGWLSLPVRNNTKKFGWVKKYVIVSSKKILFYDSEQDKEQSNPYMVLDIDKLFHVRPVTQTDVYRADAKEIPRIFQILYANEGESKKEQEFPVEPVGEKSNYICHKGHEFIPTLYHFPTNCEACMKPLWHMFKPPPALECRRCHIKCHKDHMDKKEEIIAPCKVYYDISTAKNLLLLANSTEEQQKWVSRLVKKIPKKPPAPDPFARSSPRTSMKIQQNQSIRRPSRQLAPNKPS

As to `COc1cc(Cn2ccn(-c3ccc(-c4cn[nH]c4)c(OC)n3)c2=O)ccc1F` [Example 477, 1-(4-fluoro-3-methoxybenzyl)-3-(6-methoxy-5-(1H-pyrazol-4-yl)pyridin-2-yl)-1H-imidazol-2(3H)-one], the 50% inhibitory concentration (IC50) against ROCK2 was under 0.002 µM.
`COc1cc(F)cc(Cn2ccn(-c3ccc(-c4cn[nH]c4)c(OC)n3)c2=O)c1` [Example 478, 1-(3-fluoro-5-methoxybenzyl)-3-(6-methoxy-5-(1H-pyrazol-4-yl)pyridin-2-yl)-1H-imidazol-2(3H)-one] returned an IC50 against ROCK2 of under 0.002 µM.
As to `C[C@@H](N)[C@H]1CC[C@H](C(=O)Nc2ccncc2)CC1` [Example Y-27632], the blood pressure entry was “only a minor effect on blood pressure” in assay [1] (control rats) and “significantly decrease blood pressure” in assay [1] (three rat models of hypertension). In assay [2], the neointimal formation entry was “inhibited neointimal formation”. Moreover, in the assay with Dahl salt-sensitive rats, the “ventricular hypertrophy, fibrosis and function” value was “improve ventricular hypertrophy, fibrosis and function”.
In turn, `COc1cccc(C(C)(C(N)=O)N2CCN(c3ccc(-c4cn[nH]c4)cc3)C2=O)c1` (stereo not shown) [compound 306, 2-(3-(4-(1H-pyrazol-4-yl)phenyl)-2-oxoimidazolidin-1-yl)-2-(3-methoxyphenyl)propanamide] returned an IC50 at ROCK2 of 0.0201 to 0.2 µM.
On to `O=S(=O)(c1cccc2cnccc12)N1CCCNCC1` [fasudil], for which, in the assay on rat stroke model, the “infarct size and neurologic deficit” value is “reduce both the infarct size and neurologic deficit”. For the same molecule, in assay [3], the coronary constrictive remodeling result is on record as “promote a regression of coronary constrictive remodeling” and the coronary stenosis result was “progressively reduce coronary stenosis”.
